Data from PubChem BioAssay (NCI).
“And” between values parts separate entries of the source, which are not always exact repeats. Equal values may be shown once.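 Test compounds were applied to cells in 96-well plates for 48 hours at 5 doses. Abbreviation: GI50, concentration required for 50% inhibition of growth. TGI: total growth inhibition.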 *1 amine or outer side, *2 acyl side, *3 side chain or, on linkers, in order; H or OH if unused. Where a SMILES comes first, the peptide text is derived from it. Bridges are numbered along the chain shown (N, C = ends). Roman numbers before positions name the chains, in order. [ ]: non-standard residue; d: D form. Actinocin(9to1) = Cc1c2oc3c(C)ccc(C(=O)[*:1])c3nc-2c(C(=O)[*:2])c(N)c1=O; NMeT = CN[CH](C(=O)O)[CH](C)O; Sar = CNCC(=O)O

Key:
Test in all cases: NCI anticancer screen, dose series, 48 h
RXF 393 renal = test system: RXF 393 renal
NCI-H522 lung = test system: NCI-H522 lung
SNB-19 CNS = test system: SNB-19 CNS
CCRF-CEM leukemia = test system: CCRF-CEM leukemia
BT-549 breast = test system: BT-549 breast
OVCAR-4 ovarian = test system: OVCAR-4 ovarian
M14 melanoma = test system: M14 melanoma

Compound | GI50 (RXF 393 renal) | TGI (RXF 393 renal) | GI50 (NCI-H522 lung) | TGI (NCI-H522 lung) | GI50 (SNB-19 CNS) | TGI (SNB-19 CNS) | GI50 (CCRF-CEM leukemia) | TGI (CCRF-CEM leukemia) | GI50 (BT-549 breast) | TGI (BT-549 breast) | GI50 (OVCAR-4 ovarian) | TGI (OVCAR-4 ovarian) | GI50 (M14 melanoma) | TGI (M14 melanoma)
COC(=O)CC[C@]1(C)O[C@H]2[C@H]([C@@H](C)CCCC(C)=O)OC(=O)[C@@H]2C[C@H]1O | 60.1 µM | > 100 µM | > 100 µM | > 100 µM | > 100 µM | > 100 µM | > 100 µM | > 100 µM | > 100 µM | > 100 µM | > 100 µM | > 100 µM |  | 
Cc1ccc(Cc2cnc(NC(=O)/C=C/c3cccc(C)c3)s2)cc1 | 0.106 µM | 0.671 µM | 0.151 µM | > 100 µM | 0.224 µM | 23.1 µM | 0.0893 µM | > 53.6 µM | 0.256 µM | > 27.4 µM | 0.842 µM | 4.71 µM | 0.0808 µM | 0.843 µM
C=C(C)[C@@H]1CC[C@]2(C(=O)O)CC[C@]3(C)[C@H](CC[C@@H]4[C@@]5(C)CCC(NC(=O)c6cccc(OC(C)=O)c6OC(C)=O)C(C)(C)[C@@H]5CC[C@]43C)[C@@H]12 (some centres not stated) | 1 µM | 3.12 µM | 0.371 µM | 1.62 µM | 0.832 µM | 25.7 µM | 0.585 µM | 18.9 µM | 1.18 µM | 3.67 µM | 0.507 µM | > 100 µM | 0.399 µM | 2.25 µM
Cc1nc2sc(C(=O)Nc3cccc4ccccc34)c(N)c2cc1C(O)c1ccccc1 (configuration not stated) | 0.0307 µM | 24.7 µM | 0.048 µM | 11.4 µM | 0.108 µM | > 66.7 µM | 0.0409 µM | > 100 µM | 0.144 µM | 3.63 µM | 0.215 µM | 44.2 µM | 0.0409 µM | 15 µM
O=C(O)c1ccc(Oc2nccc(-c3c(-c4ccc(F)cc4)ncn3C3CCNCC3)n2)cc1 | > 25 µM | > 25 µM | > 25 µM | > 25 µM | > 25 µM | > 25 µM |  |  | > 25 µM | > 25 µM | > 25 µM | > 25 µM | > 25 µM | > 25 µM
C=C1C(=O)O[C@H]2[C@H]1CC/C(COC(=O)c1cc3ccccc3o1)=C\CC[C@@]1(C)O[C@@H]21 | 1.43 µM | 2.87 µM | 0.68 µM | 2.39 µM | 3.16 µM | 13.3 µM | 0.335 µM | 4.03 µM | 1.48 µM | 3.29 µM | 1.56 µM | 3.98 µM | 1.43 µM | 3.13 µM
COc1ccc2c3c([nH]c2c1[N+](=O)[O-])C(C)N(Cc1ccc([N+](=O)[O-])cc1)CC3 (configuration not stated) |  | 57.1 µM |  | 20.8 µM |  | > 100 µM |  | > 100 µM |  |  |  | 12.2 µM |  | 35.9 µM
C=C1C(C2(C)C(OC(C)=O)CC(=O)OC(C)(COC(C)=O)C2CC(=O)OC)C(OC=O)C(OC(=O)C(O)C(C)CC)C2(C)C(c3ccoc3)CC(=O)C12O (configuration not stated) |  | 6.48 µM |  | > 100 µM |  | > 100 µM |  |  |  | > 30.5 µM |  | > 100 µM |  | > 100 µM
COc1ccc(/C(COc2ccc3c(=O)c(-c4ccccc4)coc3c2)=N\O)cc1 | 7.81 µM | > 80.7 µM | 4.65 µM | 20.6 µM | 14.9 µM | > 86.7 µM | 3.9 µM | > 100 µM | 8.27 µM | 54.7 µM | 16.1 µM | > 100 µM | 8.49 µM | 23.8 µM
CNC/C(Cl)=N/S(=O)(=O)c1ccc(C)cc1 |  | 9.34 µM |  | 24.9 µM |  | 68.2 µM |  |  |  | 51.7 µM |  | 25.4 µM |  | 39.7 µM
COc1cc2ncn(-c3cc(O[C@@H](C)c4ccccc4Cl)c(C(N)=O)s3)c2cc1OC | 0.346 µM | > 22.9 µM | 0.434 µM | 6.51 µM | 2.7 µM | > 25 µM | 0.107 µM | > 10.5 µM | 2.94 µM | > 24.1 µM | 3.53 µM | > 25 µM | 1.76 µM | > 25 µM
O=C(O)CCCSc1ccccc1 |  | > 100 µM |  | > 100 µM |  | > 100 µM |  | > 100 µM |  | > 100 µM |  | > 100 µM |  | > 100 µM
COc1cccc(/C=C/[N+](=O)[O-])c1 | 1.83 µM | 3.39 µM | 11.1 µM | 23.5 µM | 16.5 µM | 37 µM | 2.8 µM | 7.32 µM | 1.86 µM | 3.99 µM | 15.5 µM | 36.9 µM | 2.01 µM | 4.63 µM
Cc1cccc(C)c1NC(=O)C(=O)CC(=O)/C=C/c1ccccc1 |  | > 100 µM |  | > 100 µM |  | > 100 µM |  | > 100 µM |  | > 100 µM |  | > 100 µM |  | > 100 µM
Cc1c2oc3c(C)ccc(C(=O)NC4C(=O)NC(C(C)C)C(=O)N5CCCC5C(=O)N(C)CC(=O)N(C)C(C(C)O)C(=O)OC4C)c3nc-2c(C(=O)NC2C(=O)NC(C(C)C)C(=O)N3CCCC3C(=O)N(C)CC(=O)N(C)C(C(C)O)C(=O)OC2C)c(N)c1=O (configuration not stated) (I: TVP[Sar][NMeT] / II: TVP[Sar][NMeT]; ester I:1-I:C, II:1-II:C; linker I:N-II:N via Actinocin(9to1); configuration not given here) |  | 2.95 µM and > 1 µM |  | 1.53 µM and > 1 µM | 2.3 µM and 0.572 µM | > 100 µM |  | 26.7 µM and > 1 µM |  |  | 6.1 µM and > 1 µM | 32.4 µM and > 1 µM | 7.14 µM and > 1 µM | > 56.9 µM
NC[C@H]1Nc2ccccc2[C@@H](O)C1O (some centres not stated) |  | > 100 µM |  |  |  | > 100 µM |  | > 100 µM |  |  |  | > 100 µM |  | > 100 µM
C[C@@H](O)[C@H](NC(=O)N[C@@H](CC(N)=O)c1nc([C@@H](N)CO)no1)C(=O)O | > 100 µM | > 100 µM | > 100 µM | > 100 µM | > 100 µM | > 100 µM | > 100 µM | > 100 µM | > 100 µM | > 100 µM | > 100 µM | > 100 µM | > 100 µM | > 100 µM
Cc1cc(=O)oc2c(C)c(O)ccc12 |  | > 100 µM |  | > 100 µM |  | > 100 µM |  | > 100 µM |  | > 100 µM |  | > 100 µM |  | > 100 µM
CS(=O)(=O)CCNCc1ccc(-c2ccc3ncnc(Nc4ccc(OCc5ccccc5)c(Br)c4)c3c2)o1 | 3.71 µM | 8.19 µM | 3.86 µM | 10.6 µM | > 20.8 µM | > 25 µM | 9.89 µM | > 25 µM | 8.89 µM | > 25 µM | 15.5 µM | > 25 µM | 4.98 µM | 10.3 µM
Nc1c2c(c(O)c3c1=C(CO)C=N3)=NCCS2 | 0.289 µM | 1.24 µM | 0.191 µM | 0.43 µM | 0.147 µM | 0.284 µM | 0.329 µM | 1.9 µM | 0.175 µM | 0.317 µM | 0.136 µM | 0.264 µM | 0.0839 µM | 0.215 µM
Cc1ccc(NC2=C(Cl)C(=O)N(Cc3ccc(Cl)cc3)C2=O)cc1O | 10.4 µM | 36.4 µM | 11.6 µM | 34.3 µM | 10.8 µM | 39 µM | 4.64 µM | 60 µM |  |  | 25.4 µM | > 100 µM | 13.8 µM | 38 µM
O=C1c2ccccc2-c2oc(=O)c3ccccc3c21 |  | > 100 µM |  | > 100 µM |  | > 100 µM |  | > 100 µM |  |  |  | > 100 µM |  | > 100 µM
O=C1O[C@H](c2ccccc2)[C@@H]2CC3(CCN12)OCCO3 |  | > 100 µM |  | 7.48 µM |  | > 100 µM |  | > 100 µM |  |  |  | > 100 µM |  | > 100 µM
N#CC1=C(N)Oc2c(ccc3ccccc23)C1c1ccccc1 (configuration not stated) |  |  | 0.0226 µM | 1.7 µM | 0.0579 µM | 18.1 µM | 0.0437 µM | 41.5 µM | 0.0821 µM | 3.4 µM | 0.063 µM | 14.5 µM | 0.0348 µM | 13.6 µM
COc1ccc(-c2cc(-c3cccn3C)c(C#N)c(=O)[nH]2)cc1OC | > 100 µM | > 100 µM | > 100 µM | > 100 µM | > 100 µM | > 100 µM | 5.02 µM | > 100 µM | > 100 µM | > 100 µM | > 100 µM | > 100 µM |  | 
COc1cc(Nc2nc3ccccc3nc2NS(=O)(=O)c2ccc(NC(=O)c3ccc(C)c(OC)c3)cc2)cc(OC)c1 | 2.8 µM and 7.57 µM and 1.06 µM | 14.8 µM and 33.4 µM and > 6.13 µM |  |  | 3.14 µM and 19.8 µM and 2.3 µM | 31 µM and > 100 µM and > 10 µM |  | > 100 µM and 71.6 µM and > 10 µM |  | 20.9 µM and 49.2 µM and > 6.49 µM |  | > 100 µM |  | > 100 µM and 94 µM and > 4.68 µM
O=C1NC(=O)C(c2ccccc2Cl)=C1Nc1cc(Cl)c(O)c(Cl)c1 | 5.98 µM | > 23.5 µM | 8.78 µM | > 25 µM | > 25 µM | > 25 µM |  |  | 16.7 µM | > 25 µM | 13.7 µM | > 25 µM | > 19.5 µM | > 25 µM
Cc1cc(-c2nc3sccn3c2/C=N/N=C(N)N)c(C)s1 |  |  | 15.7 µM | 32 µM | 16.2 µM | 32.8 µM | 16.6 µM | 48 µM | 18.5 µM | 33.3 µM | 16.2 µM | 35.3 µM | 15.8 µM | 29.3 µM
